We go through one compound from paper PMC8954547, “Nonpeptidic Z360-Analogs Tagged with Trivalent Radiometals as Anti-CCK2R Cancer Theranostic Agents: A Preclinical Study” (Pharmaceutics, 2022).

One data set deals with HEK293-CCK2i4svR cells. Nature of the data set: Radioligand uptake and internalization in HEK293-CCK2i4svR cells. The format is cell-based, human. An outline of the steps:
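Cells incubated at 37 °C with 250 fmol radioligand in DMEM/1% FBS for 1 h ([111In]In-GAS1/2/3 also 15, 30 min, 2 h). Acid wash (glycine pH 2.8) gave membrane-bound and 1 N NaOH lysis gave internalized fractions, gamma-counted. Specific values (minus 1 µM DG2 nonspecific) as % of added activity per well.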

The nature of data set [1]: Radioligand stability in mice (radio-HPLC of blood and urine). The format is in vivo. As to conditions: mean ± SD. An outline of the steps: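 Male Swiss albino mice (n=3) given 2.5–3 nmol radioligand i.v. via tail vein in saline/EtOH 9/1. Blood at 5 min and urine at 30 min pi, EDTA-treated on ice, MeCN-deproteinised, analysed by radio-RP-HPLC; value is mean percent intact radioligand ± SD.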

Turning to `CC(C)(C)C(=O)CN1C(=O)[C@H](NC(=O)Nc2cccc(C(=O)NCCOCCOCCOCCNC(=O)[C@H](CCC(=O)O)NC(=O)CCC(C(=O)O)N3CCN(CC(=O)[O-])CCN(CC(=O)[O-])CCN(CC(=O)[O-])CC3)c2)CN(C2CCCCC2)c2ccccc21.[177Lu+3]` (stereo in doubt) [[^177Lu]Lu-GAS3], the “Internalized to membrane-bound ratio” value in the data set with HEK293-CCK2i4svR cells worked out at 2.8. Also, the “Cell uptake (internalized + membrane-bound)” value in the data set on HEK293-CCK2i4svR cells (1 h 37 °C, specific, of total added activity) was 7.65 ± 1.31%. The “Intact radioligand in blood” value in data set [1] (mice blood collected 5 min pi) was 95.8 ± 2.0 (3) %. In addition, the “Intact radioligand in urine” value in data set [1] (mice urine collected 30 min pi) is listed as 88.1 ± 0.4 (3) %.
